Assay results published in US20140121164A1, “PREVENTION OF KIDNEY INJURY OR DISEASE” (University of Florida Research Foundation, priority 2012, published 2014).
“Also recorded” adds a separate entry of the source.

Experiments:
[1] = system: patients undergoing cardiac surgery; assay: Prevention of AKI by different dosage regimes of AP214 in patients undergoing cardiac surgery (CS005 protocol); type: in vivo, human
Description: Each of 12 patients undergoing cardiac surgery (the AP214 group) was dosed with 600 μg/kg AP214: 200 μg/kg at skin incision, 200 μg/kg at cross clamp release, and 200 μg/kg 6-hour after cross clamp release. Each dosage was provided over a period of 10 minutes. The placebo group included 13 patients undergoing cardiac surgery without AP214 infusion.
Objectives • trial objective was to assess the effect of AP214 on • 1) changes in serum creatinine, cystatin-C and carbamade, • 2) on eGFR and • 3) on the development of post-surgical acute kidney injury (AKI) • AKI also assessed (post-hoc analysis) by AKIN and RIFLE
Three different definitions of AKI were tested: • 1) 3 patients in the AP214 group developed AKI, in contrast to 7 patients in the placebo group who developed AKI. AKI is defined as in the CS005 protocol: • An absolute increase in serum creatinine of more than or equal to 26.4 μmol/l (0.3 mg/dl) or • A percentage increase in serum creatinine of more than or equal to 50% (1.5-fold from baseline) from Day 0-14 and/or • Urine output less than 0.5 mL/kg per hour for more than 6 hours. • 2) AKI according to the AKIN score as presented in FIG. 3a, and • 3) AKI according to the RIFLE score as presented in FIG. 3b.

[2] = system: patients undergoing cardiac surgery on cardiopulmonary bypass (CPB); assay: CS007 trial: short and long term efficacy signals and safety of AP214 in patients undergoing cardiac surgery on cardiopulmonary bypass; type: in vivo, human; details: for average serum creatinine values over time: through 168 hours post surgery; for outcomes as measured by the composite endpoint (all cause death, RRT, kidney function): 90 day post-operative period, vs placebo; for population distribution of extreme serum creatinine values: highest quartile; for kidney function as measured by estimated GFR: seven day post-operative period
Excerpt: The CS007 trial was designed to study both short and long term efficacy signals (FIG. 5).
Primary Aims • Safety: Safety and tolerability vs. placebo • Efficacy: Max post-operative change in absolute values of SCr compared to baseline within the first 7 days after surgery or until discharge from hospital, whichever comes first vs. placebo.
Secondary Aims • Composite: • Assess the proportion of patients reaching the composite endpoint of death, need for RRT or a 25% reduction in renal function over a 90 day post-operative period vs. placebo. • AKIN: Assess post-operative incidence of AKI within 48 hours post-surgery • RIFLE: Assess post-operative incidence of AKI within first 7 days post-surgery. • SCr: Changes between surgery and postoperative day 7. • GFR: Changes at day 90 compared to baseline. • eGFR: Changes between surgery and postoperative day 7
Each dosage was provided over a period of 10 minutes. As used throughout this disclosure and unless specified otherwise, “μg/kg” refers to μg AP214 per kg bodyweight of the patient being treated.
Moreover, in the same double-blind study described in this Example, patients undergoing cardiac surgery on cardiopulmonary bypass (CPB) were randomized to placebo (PBO; n=26), AP214 given at either 600 μg/kg (n=25), or 800 μg/kg (n=26), divided into 3 bolus infusions at the predetermined intervals as described above. AKI was determined according to AKIN and RIFLE scores.

subjects = assay: Evaluation of rate of infusion of AP214 (CS002); type: in vivo, human
Description: To establish a suitable rate of infusion of AP214 a set of patient trials were performed.
AP214 isotonic solution single ascending doses (25, 50 and 100 μg/kg) for intravenous infusion administered over 10 minutes, or placebo (saline infusion).
AP214 isotonic solution single doses (100 μg/kg over 1 minute; 100 μg/kg over 30 seconds; 200 μg/kg over 30 seconds) for intravenous infusion.

[3] = system: pigs after induction of complete warm ischemia in the kidney; details: 200 μg/kg, 10 ml i.v. bolus during 1 minute, seven doses; cited from earlier work
[4] = 600 μg/kg bodyweight (3×200 μg/kg), i.v. over 10 min each, vs placebo
[5] = 600 μg/kg bodyweight, vs placebo

Structure (SMILES): CSCC[C@H](NC(=O)[C@H](CO)NC(=O)[C@H](Cc1ccc(O)cc1)NC(=O)[C@H](CO)NC(=O)[C@H](CCCCN)NC(=O)[C@H](CCCCN)NC(=O)[C@H](CCCCN)NC(=O)[C@H](CCCCN)NC(=O)[C@H](CCCCN)NC(=O)[C@H](CCCCN)NC(C)=O)C(=O)N[C@@H](CCC(=O)O)C(=O)N[C@@H](Cc1c[nH]cn1)C(=O)N[C@@H](Cc1ccccc1)C(=O)N[C@@H](CCCNC(=N)N)C(=O)N[C@@H](Cc1c[nH]c2ccccc12)C(=O)NCC(=O)N[C@@H](CCCCN)C(=O)N1CCC[C@H]1C(=O)N[C@H](C(N)=O)C(C)C [AP214, Acetyl-Lysyl-L-lysyl-L-lysyl-L-lysyl-L-lysyl-L-lysyl-L-seryl-L-tyrosyl-L-seryl-L-methionyl-Lglutamyl-L-histidyl-L-phenylalanyl-L-arginyl-L-tryptophanyl-glycyl-L-lysyl-L-prolyl-L-valine amide]
- prevention of AKI as compared to the placebo ([1]; 150 μg/kg bodyweight (3×50 μg/kg), same dosing scheme): showed no prevention of AKI
- patients who developed AKI (AKI as defined in the CS005 protocol) ([1]; 600 μg/kg (3×200 μg/kg), AP214 group of 12 patients, Day 0-14): 3 patients
- development of AKI according to the RIFLE score and AKIN scores ([1]; 600 μg/kg bodyweight (3×200 μg/kg)): demonstrated prevention in the development of AKI
- decrease in eGFR [1, 4]: prevented a decrease in eGFR
- increase in serum creatinine [1, 4]: prevented
- increase in carbamide [1, 5]: prevented
- increase in cystatin C [1, 5]: prevented an increase in cystatin C
- average serum creatinine values over time ([2]; 600 μg/kg (3×200 μg/kg)): decreased average serum creatinine; also recorded: decreasing average serum creatinine values over time
- outcomes as measured by the composite endpoint (all cause death, RRT, kidney function) ([2]; 600 μg/kg): reduction in outcomes with the 600 μg/kg dosage showing statistical significance; also recorded: reduction in negative outcomes
- population distribution of extreme serum creatinine values ([2]; 600 μg/kg): reduction in serum creatinine values at the highest quartile
- kidney function as measured by estimated GFR ([2]; 600 μg/kg): increased kidney function
- degrees of acute kidney injury compared to placebo ([2]; 800 μg/kg): lesser degrees of acute kidney injury
- patients scored as AKI by AKIN and RIFLE criteria ([2]; 800 μg/kg): decrease in patients scored as AKI
- average serum creatinine values over time ([2]; 800 μg/kg (1×200, 1×400, 1×200 μg/kg)): decreased average serum creatinine; also recorded: decreasing average serum creatinine values over time
- GFR change (reduction) at Day 90 compared to baseline ([2]; 800 μg/kg vs. placebo, Danish sites only): significantly lower GFR change (reduction)
- outcomes as measured by the composite endpoint (all cause death, RRT, kidney function) ([2]; 800 μg/kg): reduction in negative outcomes
- incidence of AKI compared with PBO by surgery type ([2]; 800 μg/kg, combined CABG and valve surgery, multiple valve surgery, chronic kidney disease and CABG (or valve surgery)): numerically lower incidence of AKI
- population distribution of extreme serum creatinine values ([2]; 800 μg/kg): reduction in serum creatinine values at the highest quartile
- kidney function as measured by estimated GFR ([2]; 800 μg/kg): increased kidney function
- safety and tolerability ([2]; 600 and 800 μg/kg, each dosage over 10 minutes): safe and well tolerated
- adverse events relative to 100 μg/kg over 30 sec and 1 minute (subjects; 200 μg/kg over 30 seconds): more adverse events
- subjects reporting erythema (subjects; Group 2 (n=6), short infusion times): 6 subjects
- adverse events (subjects; Group 2 (n=6), short infusion times: 100 μg/kg over 1 minute, 100 μg/kg over 30 seconds, 200 μg/kg over 30 seconds, i.v.): large number of adverse events
- episodes of vomiting in one subject (subjects; Group 2, short infusion times): 8 episodes
- tolerability (subjects; fast infusion rates): not well tolerated
- adverse effects (subjects; slower infusion rate, 100 μg/kg over 10 minutes): did not show these adverse effects
- tolerability (subjects; slower infusion rates (e.g., 10 minutes)): better tolerated
- renoprotective effect [3]: provides a renoprotective effect
